Source: PubChem BioAssay (NCI)
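Step 1: Grow cells in 96-well plates. Step 2: Expose to compound for 48 hours at 5 concentrations. Step 3: Interpolate endpoints linearly; if unreached, use highest concentration. Abbreviation: GI50, concentration required for 50% inhibition of growth. TGI: total growth inhibition.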

Assays:
Assay in all cases: NCI anticancer screen, dose series, 48 h
SNB-75 CNS = test system: SNB-75 CNS
MOLT-4 leukemia = test system: MOLT-4 leukemia
NCI-H23 lung = test system: NCI-H23 lung
RPMI-8226 leukemia = test system: RPMI-8226 leukemia
TK-10 renal = test system: TK-10 renal
EKVX NSCLC = test system: EKVX NSCLC
NCI-H226 lung = test system: NCI-H226 lung
MDA-MB-435 = test system: MDA-MB-435
OVCAR-8 ovarian = test system: OVCAR-8 ovarian
COLO 205 colon = test system: COLO 205 colon

| Compound | GI50 (SNB-75 CNS) [µM] | TGI (SNB-75 CNS) [µM] | GI50 (MOLT-4 leukemia) [µM] | TGI (MOLT-4 leukemia) [µM] | GI50 (NCI-H23 lung) [µM] | TGI (NCI-H23 lung) [µM] | GI50 (RPMI-8226 leukemia) [µM] | TGI (RPMI-8226 leukemia) [µM] | GI50 (TK-10 renal) [µM] | TGI (TK-10 renal) [µM] | GI50 (EKVX NSCLC) [µM] | TGI (EKVX NSCLC) [µM] | GI50 (NCI-H226 lung) [µM] | TGI (NCI-H226 lung) [µM] | GI50 (MDA-MB-435) [µM] | TGI (MDA-MB-435) [µM] | GI50 (OVCAR-8 ovarian) [µM] | TGI (OVCAR-8 ovarian) [µM] | GI50 (COLO 205 colon) [µM] | TGI (COLO 205 colon) [µM] |
| --- | --- | --- | --- | --- | --- | --- | --- | --- | --- | --- | --- | --- | --- | --- | --- | --- | --- | --- | --- | --- |
| O=C(CN=Cc1cccs1)CSC(c1ccccc1)c1ccccc1 | 30.5 | > 100 | 18.5 | 69.1 | 29.2 | > 100 | 12.1 | 28.7 | 30.5 | > 100 | 26.2 | 96.9 | 24 | 66 | 17.7 | 36.3 | 22.6 | 55.5 | 11.7 | 24 |
| CC(=O)C1=C(O)/C(=C\c2ccco2)OC1=O |  | > 10 |  | > 10 |  | > 10 |  | > 10 |  | > 10 |  | > 10 |  | > 10 |  | > 10 |  | > 10 |  | > 10 |
| CC(C)n1nc(C#Cc2cccc(NC(=O)c3cccc(C(F)(F)F)c3)c2)c2c(N)ncnc21 | 1.75 | 3.89 | 1.36 | 61.3 | 1.95 | 22.8 | 2.26 | 16.7 | 1.78 | 4.45 | 3.46 | > 100 | 0.99 | 6.35 | 1.67 | > 100 | 3.15 | > 100 | 0.524 | 5.73 |
| O=[N+]([O-])O.[NH-]C1CCCCC1[NH-].[NH-]C1CCCCC1[NH-].[NH-]C1CCCCC1[NH-].[OH-].[OH-].[OH-].[Pt+4].[Pt+4].[Pt+4] (stereo not given) | 1.49 | 32.6 | 0.0283 | 2.2 | 0.359 | 4.7 | 0.0311 | > 24.2 | 2.2 | 28.9 | 30.1 | > 100 | 1.37 | 27.5 | 0.367 | 6.3 | 0.382 | > 74.1 | 0.631 | 27.9 |
| O=c1[nH]c2cc(O)ccc2n2cc3c(F)cccc3c12 | 1.76 | > 100 | 2.16 | > 100 | 3.86 | > 100 | 4.38 | > 100 | > 100 | > 100 | 4.69 | > 100 | 2.04 | > 100 | 0.278 | > 100 | 3.85 | > 100 | 7.3 | > 100 |
| CC(C)(C)NCCC(O)c1cc(C(F)(F)F)nc2c(C(F)(F)F)cccc12 (stereo not given) |  | 26.5 |  | 18.6 |  | 9.74 |  | 17.1 |  | 24.8 |  | 27.2 |  | 33.4 |  | 27.6 |  | 17.8 |  | 25.5 |
| COc1cc(/C=C\c2cccnc2Nc2ccccc2)cc(OC)c1OC | 4.12 | 57.5 | 6.72 | 46.2 | 10.2 | > 100 | 6.83 | 34.8 | 15.5 | 80.7 | 7.55 | > 100 | 10.8 | 33.2 | 5.63 | 43.3 | 6.7 | > 100 | 4.44 | 16.2 |
| OCCCCC#Cc1ccccc1C#Cc1cnccn1 | 17.3 | 53.7 | 29.8 | > 100 | 40.8 | > 100 | 26.7 | > 100 | 47.7 | > 100 | 36.5 | 95.3 | 40 | > 100 | 33.8 | > 100 | 33 | > 100 | 32 | > 100 |
